Test results from patent publication US20250361268A1, “NOVEL ANTI-INFLAMMATORY PEPTIDE AND USE THEREOF” (NOVACELL TECHNOLOGY INC., priority 2022, published 2025).
Peptide text beside a SMILES is read from it.

What was measured:
RAW264.7 cell line = experiment: Cytokine inhibition ability: LPS-induced cytokine gene expression in RAW264.7 macrophages; format: cell-based, mouse; details: grade of reduction rate of gene expression, peptide 100 nM, LPS 200 ng/mL, 6 hours
Method: The present inventors observed the cytokine inhibition ability of the immunomodulatory peptide candidates prepared according to one example of the present invention. Specifically, to confirm whether the peptides reduce inflammatory responses in cells, changes in cytokine gene expression in cells upon inflammation was measured.
The present inventors used a RAW264.7 cell line, that is, mouse macrophages, and used lipopolysaccharide (LPS; Sigma-Aldrich, #L2630), which is the main component of a gram-negative bacterial cell wall, as a material causing an inflammatory response. A peptide that had been dissolved in water at 100 μM was prepared.
In the present experiment, the cells were cultured in a DMEM (Lonza, #BE12-604F) containing 10% FBS and 1% penicillin-streptomycin under conditions of 37° C. and 5% CO2.
The cells were plated in a 24-well plate (Costar, #3603) at a density of 2.5×10^5 cells/well. After 24 hours, the prepared cells were treated with the peptide at 100 nM. After incubation at 37° C. for 30 minutes, to induce inflammation, 200 ng/mL of LPS was treated. After incubation at 37° C. for 6 hours, the cells in a medium-free state were treated with TRIzol™ (Invitrogen, #15596018) to lyse the cells. Through the given experimental method, RNA was obtained, cDNA was produced using a reverse transcriptase (Promega, #M1705). Afterward, a cytokine expression level was measured using SYBR Green (Enzynomics, RT530) and mouse primers of each inflammatory cytokine gene (TNFα, IL-6, and IL-1β).

FPR1 = molecular target: T1, FPR1 (Homo sapiens, UniProt P21462); experiment: Change in calcium activity by peptide, FPR1 activation effect; format: cell-based; details: calcium activity (Fura-2), graded per Table 3, read-out: EC50 for [Ca^2+] FPR1
T1 sequence (P21462 1-350): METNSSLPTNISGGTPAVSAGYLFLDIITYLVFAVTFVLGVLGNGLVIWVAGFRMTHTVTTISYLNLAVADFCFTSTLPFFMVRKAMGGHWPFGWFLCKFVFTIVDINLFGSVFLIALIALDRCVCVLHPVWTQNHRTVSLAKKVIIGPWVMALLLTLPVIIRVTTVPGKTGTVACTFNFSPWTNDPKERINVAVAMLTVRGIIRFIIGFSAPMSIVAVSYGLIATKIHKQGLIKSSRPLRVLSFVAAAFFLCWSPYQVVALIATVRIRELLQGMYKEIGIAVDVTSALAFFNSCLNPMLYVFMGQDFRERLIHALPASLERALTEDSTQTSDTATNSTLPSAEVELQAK
Outline: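 Cells plated at 3×10^5 per well the day before were loaded with Fura-2 for 1 h at 37 °C, then kept 30 min in the dark at room temperature. Peptide-evoked calcium changes were recorded on a FlexStation 3.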

FPR2 = molecular target: T2, FPR2 (Homo sapiens, UniProt P25090); experiment: Change in calcium activity by peptide (Fura-2) in RBL cells overexpressing FPR2; format: cell-based; details: calcium activity (Fura-2), graded per Table 3, read-out: EC50 for [Ca^2+] FPR2
T2 construct: expressed in transfected cells; host or cells: RBL cells (RBL-FPR2)
T2 sequence (P25090 1-351): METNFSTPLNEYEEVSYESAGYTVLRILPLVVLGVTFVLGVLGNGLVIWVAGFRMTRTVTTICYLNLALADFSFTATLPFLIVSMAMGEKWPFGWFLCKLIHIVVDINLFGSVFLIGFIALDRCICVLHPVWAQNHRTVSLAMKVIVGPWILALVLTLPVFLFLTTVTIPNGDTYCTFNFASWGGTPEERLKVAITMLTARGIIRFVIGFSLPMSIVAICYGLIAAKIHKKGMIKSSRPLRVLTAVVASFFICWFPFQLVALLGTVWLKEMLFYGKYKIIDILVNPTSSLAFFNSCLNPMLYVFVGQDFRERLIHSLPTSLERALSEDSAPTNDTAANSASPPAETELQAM
Outline: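 Rat basophilic leukemia cells overexpressing FPR2 loaded with Fura-2 (37 °C 1 h, then RT 30 min dark); peptides (0.5 mM stocks in water or 50% DMSO) diluted in HBSS + 20 mM HEPES and added on a plate reader, intracellular Ca2+ change recorded.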

## CSCC[C@H](NC(C)=O)C(=O)N[C@@H](CCCCN)C(=O)N[C@@H](Cc1ccc(O)cc1)C(=O)N[C@@H](CCCCN)C(=O)N1CCC[C@H]1C(=O)N[C@H](CCSC)C(N)=O [Peptide 71] (HELM PEPTIDE1{[ac].M.K.Y.K.P.[dM].[am]}$$$$V2.0)
RAW264.7 cell line
  Cytokine inhibition ability IL-1β: A (81%-100%)
  Cytokine inhibition ability IL-6: C (41%-60%)
  Cytokine inhibition ability TNFα: C (41%-60%)
FPR1
  EC50: > 10 µM
FPR2
  EC50: 0.011 to 0.1 µM

## CCCCCCCC(=O)N[C@@H](CCCCN)C(=O)N[C@@H](CCSC)C(=O)N[C@@H](CCCCN)C(=O)N[C@@H](Cc1ccc(O)cc1)C(=O)N[C@@H](CCCCN)C(=O)N1CCC[C@H]1C(=O)N[C@H](CCSC)C(N)=O [Peptide 69] (HELM PEPTIDE1{[CCCCCCCC(=O)[*:2]].K.M.K.Y.K.P.[dM].[am]}$$$$V2.0)
RAW264.7 cell line
  Cytokine inhibition ability IL-1β: A (81%-100%)
  Cytokine inhibition ability IL-6: C (41%-60%)
  Cytokine inhibition ability TNFα: B (61%-80%)
FPR1
  EC50: > 10 µM
FPR2
  EC50: 0.011 to 0.1 µM

## CSCC[C@H](NC(=O)[C@H](CCCNC(=N)N)NC(C)=O)C(=O)N[C@@H](CCCNC(=N)N)C(=O)N[C@@H](Cc1ccc(O)cc1)C(=O)N[C@@H](CCCCN)C(=O)N[C@H](C(=O)N[C@H](CCSC)C(N)=O)C(C)C [Peptide 6] (HELM PEPTIDE1{[ac].R.M.R.Y.K.V.[dM].[am]}$$$$V2.0)
RAW264.7 cell line
  Cytokine inhibition ability IL-1β: A (81%-100%)
  Cytokine inhibition ability IL-6: C (41%-60%)
  Cytokine inhibition ability TNFα: A (81%-100%)
FPR1
  EC50: > 10 µM
FPR2
  EC50: < 0.01 µM

## CCCCCCCC(=O)N[C@@H](CCSC)C(=O)N[C@@H](CCCCN)C(=O)N[C@@H](Cc1ccc(O)cc1)C(=O)N[C@@H](Cc1c[nH]c2ccccc12)C(=O)N1CCC[C@H]1C(=O)N[C@H](CCSC)C(N)=O [Peptide 116] (HELM PEPTIDE1{[CCCCCCCC(=O)[*:2]].M.K.Y.W.P.[dM].[am]}$$$$V2.0)
RAW264.7 cell line
  Cytokine inhibition ability IL-1β: B (61%-80%)
  Cytokine inhibition ability IL-6: B (61%-80%)
  Cytokine inhibition ability TNFα: B (61%-80%)
FPR1
  EC50: 1 to 10 µM
FPR2
  EC50: 0.011 to 0.1 µM

## CCCCCCCC(=O)N[C@@H](CCSC)C(=O)N[C@@H](CCCCN)C(=O)N[C@@H](Cc1ccc(O)cc1)C(=O)N[C@@H](CCCCN)C(=O)N1CCC[C@H]1C(=O)N[C@H](CCSC)C(N)=O [Peptide 73] (HELM PEPTIDE1{[CCCCCCCC(=O)[*:2]].M.K.Y.K.P.[dM].[am]}$$$$V2.0)
RAW264.7 cell line
  Cytokine inhibition ability IL-1β: B (61%-80%)
  Cytokine inhibition ability IL-6: D (21%-40%)
  Cytokine inhibition ability TNFα: B (61%-80%)
FPR1
  EC50: > 10 µM
FPR2
  EC50: 0.011 to 0.1 µM

## CCCC(=O)N[C@@H](CCSC)C(=O)N[C@@H](CCCCN)C(=O)N[C@@H](Cc1ccc(O)cc1)C(=O)N[C@@H](CCCCN)C(=O)N1CCC[C@H]1C(=O)N[C@H](CCSC)C(N)=O [Peptide 72] (HELM PEPTIDE1{[CCCC(=O)[*:2]].M.K.Y.K.P.[dM].[am]}$$$$V2.0)
RAW264.7 cell line
  Cytokine inhibition ability IL-1β: B (61%-80%)
  Cytokine inhibition ability IL-6: D (21%-40%)
  Cytokine inhibition ability TNFα: B (61%-80%)
FPR1
  EC50: > 10 µM
FPR2
  EC50: 0.011 to 0.1 µM

## CSCC[C@H](N)C(=O)N[C@@H](CCCCN)C(=O)N[C@@H](Cc1ccc(O)cc1)C(=O)N[C@@H](CCCCN)C(=O)N[C@H](C(=O)N[C@H](CCSC)C(N)=O)C(C)C [Peptide 17] (HELM PEPTIDE1{M.K.Y.K.V.[dM].[am]}$$$$V2.0)
RAW264.7 cell line
  Cytokine inhibition ability IL-1β: B (61%-80%)
  Cytokine inhibition ability IL-6: D (21%-40%)
  Cytokine inhibition ability TNFα: B (61%-80%)
FPR1
  EC50: > 10 µM
FPR2
  EC50: < 0.01 µM

## CSCC[C@H](N)C(=O)N[C@@H](CCCCN)C(=O)N[C@@H](Cc1ccc(O)cc1)C(=O)N[C@@H](CCCCN)C(=O)N1CCC[C@H]1C(=O)N[C@H](CCSC)C(N)=O [Peptide 70] (HELM PEPTIDE1{M.K.Y.K.P.[dM].[am]}$$$$V2.0)
RAW264.7 cell line
  Cytokine inhibition ability IL-1β: A (81%-100%)
  Cytokine inhibition ability IL-6: D (21%-40%)
  Cytokine inhibition ability TNFα: C (41%-60%)
FPR1
  EC50: > 10 µM
FPR2
  EC50: < 0.01 µM
